Results from ChEMBL document CHEMBL1201862, “PubChem BioAssay data set” (2004).
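How tested: cells in 96-well plates exposed to compound for 48 hours at five concentrations. GI50 = concentration required for 50% inhibition of growth.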 Calls of active or inactive are those of the source. Cut-off read from the data, not from the text of the source: active = GI50 up to about 1.1 µM and inactive = higher.

What was measured:
Experiment in all cases: inhibition of tumour cell growth, NCI panel, 48 h
SF-295 = tested on: SF-295
SNB-78 = tested on: SNB-78
SK-MEL-28 = tested on: SK-MEL-28
A549 = tested on: A549
M14 = tested on: M14
UACC-62 = tested on: UACC-62
MOLT-4 = tested on: MOLT-4
ACHN = tested on: ACHN
RPMI-8226 = tested on: RPMI-8226
HT-29 = tested on: HT-29
UO-31 = tested on: UO-31
DMS-273 = tested on: DMS-273
DLD-1 = tested on: DLD-1
SK-OV-3 = tested on: SK-OV-3
OVCAR-4 = tested on: OVCAR-4
SN12C = tested on: SN12C
KM-20L2 = tested on: KM-20L2
A498 = tested on: A498
CAKI-1 = tested on: CAKI-1
HCC 2998 = tested on: HCC 2998
HCT-116 = tested on: HCT-116
UACC-257 = tested on: UACC-257
SF-539 = tested on: SF-539
Malme-3M = tested on: Malme-3M
HCT-15 = tested on: HCT-15
HL-60 = tested on: HL-60
RXF 631 = tested on: RXF 631
OVCAR-8 = tested on: OVCAR-8
XF498 = tested on: XF498
RXF 393 = tested on: RXF 393
CCRF-CEM = tested on: CCRF-CEM
786-0 = tested on: 786-0
LXFL 529 = tested on: LXFL 529
SNB-19 = tested on: SNB-19
SW-620 = tested on: SW-620
HOP-92 = tested on: HOP-92
HOP-62 = tested on: HOP-62
COLO 205 = tested on: COLO 205
NCI-H522 = tested on: NCI-H522
OVCAR-5 = tested on: OVCAR-5
IGROV-1 = tested on: IGROV-1
NCI-H460 = tested on: NCI-H460
TK-10 = tested on: TK-10
SF-268 = tested on: SF-268
LOX IMVI = tested on: LOX IMVI
EKVX = tested on: EKVX
U-251 = tested on: U-251
OVCAR-3 = tested on: OVCAR-3
NCI-H226 = tested on: NCI-H226
NCI-H23 = tested on: NCI-H23
SNB-75 = tested on: SNB-75
SK-MEL-5 = tested on: SK-MEL-5
K562 = tested on: K562
KM12 = tested on: KM12
DMS-114 = tested on: DMS-114
M19-MEL = tested on: M19-MEL
SK-MEL-2 = tested on: SK-MEL-2
HOP-18 = tested on: HOP-18

COC(=O)C1=Cc2c(OC)cc(OC)c(OC)c2[C@H](c2cc(OC)c(OC)cc2OC)C1C(=O)OC (stereo partly specified)
GI50 (SF-295): 88.5 µM (inactive) | GI50 (SNB-78): 20.7 µM (inactive) | GI50 (SK-MEL-28): > 100 µM (inactive) | GI50 (A549): > 100 µM (inactive) | GI50 (M14): > 100 µM (inactive) | GI50 (UACC-62): > 100 µM (inactive) | GI50 (MOLT-4): > 100 µM (inactive) | GI50 (ACHN): > 100 µM (inactive) | GI50 (RPMI-8226): > 100 µM (inactive) | GI50 (HT-29): > 100 µM (inactive) | GI50 (UO-31): > 100 µM (inactive) | GI50 (DMS-273): 42.7 µM (inactive) | GI50 (DLD-1): > 100 µM (inactive) | GI50 (SK-OV-3): > 100 µM (inactive) | GI50 (OVCAR-4): 99.5 µM (inactive) | GI50 (SN12C): > 100 µM (inactive) | GI50 (KM-20L2): > 100 µM (inactive) | GI50 (A498): > 100 µM (inactive) | GI50 (CAKI-1): > 100 µM (inactive) | GI50 (HCC 2998): > 100 µM (inactive) | GI50 (HCT-116): > 100 µM (inactive) | GI50 (UACC-257): > 10 µM (inactive) | GI50 (SF-539): 54.7 µM (inactive) | GI50 (Malme-3M): > 100 µM (inactive) | GI50 (HCT-15): > 100 µM | GI50 (HL-60): 28.8 µM (inactive) | GI50 (RXF 631): > 100 µM (inactive) | GI50 (OVCAR-8): > 100 µM (inactive) | GI50 (XF498): > 100 µM (inactive) | GI50 (RXF 393): > 100 µM (inactive) | GI50 (CCRF-CEM): 64.7 µM (inactive) | GI50 (786-0): > 100 µM (inactive) | GI50 (LXFL 529): > 100 µM (inactive) | GI50 (SNB-19): > 100 µM (inactive) | GI50 (SW-620): > 100 µM (inactive) | GI50 (HOP-92): > 100 µM (inactive) | GI50 (HOP-62): > 100 µM (inactive) | GI50 (COLO 205): > 100 µM (inactive) | GI50 (NCI-H522): > 100 µM (inactive) | GI50 (OVCAR-5): > 100 µM (inactive) | GI50 (IGROV-1): > 100 µM (inactive) | GI50 (NCI-H460): > 100 µM (inactive) | GI50 (TK-10): > 100 µM (inactive) | GI50 (SF-268): > 100 µM (inactive) | GI50 (LOX IMVI): > 100 µM (inactive) | GI50 (EKVX): > 100 µM (inactive) | GI50 (U-251): > 100 µM (inactive) | GI50 (OVCAR-3): > 100 µM (inactive) | GI50 (NCI-H226): > 100 µM (inactive) | GI50 (NCI-H23): > 100 µM (inactive) | GI50 (SNB-75): 57.8 µM (inactive) | GI50 (SK-MEL-5): > 100 µM (inactive) | GI50 (K562): 20.1 µM (inactive) | GI50 (KM12): > 100 µM (inactive) | GI50 (DMS-114): > 100 µM (inactive) | GI50 (M19-MEL): > 100 µM (inactive)

CSc1ccc2c(cc1=O)[C@@H](NC(=O)c1cccc([N+](=O)[O-])c1)CCc1cc(O)c(O)c(O)c1-2
GI50 (SF-295): 42.4 µM (inactive) | GI50 (SK-MEL-2): 34.8 µM (inactive) | GI50 (SK-MEL-28): > 100 µM (inactive) | GI50 (A549): 53.6 µM (inactive) | GI50 (M14): 25.3 µM (inactive) | GI50 (UACC-62): 18.3 µM (inactive) | GI50 (MOLT-4): 21.6 µM (inactive) | GI50 (ACHN): > 100 µM (inactive) | GI50 (RPMI-8226): 28.1 µM (inactive) | GI50 (HT-29): 37.8 µM (inactive) | GI50 (UO-31): > 100 µM (inactive) | GI50 (DMS-273): 32 µM (inactive) | GI50 (DLD-1): 43.8 µM (inactive) | GI50 (SK-OV-3): 42.4 µM (inactive) | GI50 (OVCAR-4): 50 µM (inactive) | GI50 (SN12C): 27.3 µM (inactive) | GI50 (KM-20L2): 23 µM (inactive) | GI50 (A498): 27.7 µM (inactive) | GI50 (CAKI-1): 67.3 µM (inactive) | GI50 (HCC 2998): 92.7 µM (inactive) | GI50 (HCT-116): 20 µM (inactive) | GI50 (UACC-257): 87.9 µM (inactive) | GI50 (SF-539): 26.2 µM (inactive) | GI50 (Malme-3M): 81.3 µM (inactive) | GI50 (HCT-15): 36.3 µM | GI50 (HL-60): 26.1 µM (inactive) | GI50 (RXF 631): 36.1 µM (inactive) | GI50 (OVCAR-8): 66.5 µM (inactive) | GI50 (RXF 393): 51.2 µM (inactive) | GI50 (CCRF-CEM): 34 µM (inactive) | GI50 (786-0): 61.2 µM (inactive) | GI50 (LXFL 529): 35.8 µM (inactive) | GI50 (SNB-19): > 100 µM (inactive) | GI50 (SW-620): 23.5 µM (inactive) | GI50 (HOP-92): > 100 µM (inactive) | GI50 (HOP-18): > 100 µM (inactive) | GI50 (HOP-62): > 100 µM (inactive) | GI50 (COLO 205): 38.9 µM (inactive) | GI50 (NCI-H522): 12.6 µM (inactive) | GI50 (OVCAR-5): > 100 µM (inactive) | GI50 (IGROV-1): 46.2 µM (inactive) | GI50 (NCI-H460): 54.2 µM (inactive) | GI50 (TK-10): > 100 µM (inactive) | GI50 (SF-268): 57.9 µM (inactive) | GI50 (LOX IMVI): 17.5 µM (inactive) | GI50 (EKVX): 50.9 µM (inactive) | GI50 (U-251): 22.8 µM (inactive) | GI50 (OVCAR-3): 35.5 µM (inactive) | GI50 (NCI-H226): 24.2 µM (inactive) | GI50 (NCI-H23): 33 µM (inactive) | GI50 (SNB-75): 25.1 µM (inactive) | GI50 (K562): 26.6 µM (inactive) | GI50 (KM12): 31.2 µM (inactive) | GI50 (DMS-114): 24.4 µM (inactive) | GI50 (M19-MEL): 22.1 µM (inactive)
